Counter-ions that a name gives are not always drawn.
Legend:
[1] = tested on: Amnesia Induced by Scopolamine in Mice; assay: Effects on amnesia induced by scopolamine in mice (passive avoidance test); type: in vivo, Male ddy mice; settings: p.o., 30 min before scopolamine 1 mg/kg i.p.
Method: Male ddy mice, 6-7 week old, were used as subjects. A conventional two-compartment box was used for the passive avoidance test.
Tested compounds were given p.o. 30 minutes before scopolamine (1 mg/kg, i.p.). At 30 minutes after the scopolamine treatment, scrambled foot-schock (2 mA for 3 seconds) was applied to the mouse immediately after entry into the dark compartment. Retention was measured 6 hours after the training and was expressed as the mean latency to enter the dark compartment, with a cut-off point at 300 seconds. Percent improvement for the tested compounds were evaluated taking the difference between the retention latency of the untreated group and that of the control group as 100%.

acetylcholinesterase = acetylcholinesterase (Homo sapiens, UniProt P22303); assay: Inhibitive effect on acetylcholinesterase activity (anti-acetylcholinesterase activity); type: biochemical
Method: Pharmacological action of the compound of the present invention was tested using several compounds prepared in Examples presented hereinafter and 9-amino-1,2,3,4-tetrahydroacridine (Tacrine) as a comparative compound.
Specific activities for the tested compounds were calculated using the following equation. [formula]

[2] = tested on: Amnesia Induced by Scopolamine in Rats; assay: Effects on amnesia induced by scopolamine in rats (passive avoidance test); type: in vivo, Male Wister rats; settings: p.o., 15 min after scopolamine hydrochloride 0.5 mg/kg i.p.
Method: Male Wister rats, 8 week old, were used as subjects. A conventional two-compartment box was used for the passive avoidance test.
Tested compounds were given p.o. 15 minutes after scopolamine hydrochloride (0.5 mg/kg, i.p.). At 15 minutes after the tested compound treatment, scrambled foot-schock (0.5 mA for 3 seconds) was applied to the rat immediately after entry into the dark compartment. Retention was measured 24 hours after the training and was expressed as the mean latency to enter the dark compartment, with a cut-off point at 600 seconds. Percent improvement for the tested compounds was evaluated taking the difference between the retention latency of the untreated group and that of the control group as 100%.

[3] = tested on: senile dementia patients of Alzheimer type; settings: Tacrine and lecithin; The New England Journal of Medicine, 315, 1241 (1986); cited from earlier work

Chain of acetylcholinesterase (P22303 32-614): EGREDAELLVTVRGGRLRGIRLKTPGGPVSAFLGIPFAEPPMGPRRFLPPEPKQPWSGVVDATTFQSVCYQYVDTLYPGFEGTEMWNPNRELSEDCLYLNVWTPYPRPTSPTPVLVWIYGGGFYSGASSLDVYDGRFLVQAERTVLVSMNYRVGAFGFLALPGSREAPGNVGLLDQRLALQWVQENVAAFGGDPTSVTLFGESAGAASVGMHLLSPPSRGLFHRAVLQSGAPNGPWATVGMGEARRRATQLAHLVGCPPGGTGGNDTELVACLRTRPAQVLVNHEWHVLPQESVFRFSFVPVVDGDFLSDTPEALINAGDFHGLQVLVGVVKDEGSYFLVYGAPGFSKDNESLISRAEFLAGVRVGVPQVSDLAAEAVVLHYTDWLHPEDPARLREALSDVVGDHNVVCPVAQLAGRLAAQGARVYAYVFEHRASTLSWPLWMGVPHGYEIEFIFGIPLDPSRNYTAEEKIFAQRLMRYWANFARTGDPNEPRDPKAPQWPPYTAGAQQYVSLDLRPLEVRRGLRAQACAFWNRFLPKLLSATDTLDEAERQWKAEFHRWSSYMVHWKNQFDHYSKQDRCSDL

N#Cc1ccccc1NC1=CC(=O)N(CCC2CCN(Cc3ccccc3)CC2)C1 [Compound 2, N-(1-(4-(1-benzylpiperidyl)ethyl)-2-oxo-3-pyrrolin-4-yl)-2-aminobenzonitrile]
Percent Improvement ([1]; 0.01 mg/kg): 10.0% | Percent Improvement ([1]; 0.3 mg/kg): 72.8% | Anti-acetylcholinesterase Activity (Specific Activity) (acetylcholinesterase): 7.7

N#Cc1ccccc1NC1=CC(=O)N(CCCC2CCN(Cc3ccccc3)CC2)C1 [Compound 3, N-(1-(4-(1-benzylpiperidyl)propyl)-2-oxo-3-pyrrolin-4-yl)-2-aminobenzonitrile]
Percent Improvement ([1]; 0.1 mg/kg): 16.0% | Percent Improvement ([1]; 0.3 mg/kg): 53.4% | Anti-acetylcholinesterase Activity (Specific Activity) (acetylcholinesterase): 13.5

Nc1c2c(nc3ccccc13)CN(CCC1CCN(Cc3ccccc3)CC1)C2=O [Compound 7, 9-Amino-2-(4-(1-benzylpiperidyl)ethyl)-2,3-dihydropyrrolo-[3,4-b]quinolin-1-one]
Percent Improvement ([1]; 0.03 mg/kg): 52.0% | Percent Improvement ([1]; 0.1 mg/kg): 70.2% | Anti-acetylcholinesterase Activity (Specific Activity) (acetylcholinesterase): 1.94 | Percent Improvement ([2]; 0.03 mg/kg): 36.1% | Percent Improvement ([2]; 0.1 mg/kg): 68.9% | Percent Improvement ([2]; 0.3 mg/kg): 69.8%

Cl.Cl.Nc1c2c(nc3ccccc13)CCC(CCC1CCN(Cc3ccccc3)CC1)C2=O (stereo not drawn) [Compound 14, 9-amino-2-(2-(1-benzylpiperidin-4-yl)ethyl)-1,2,3,4-tetrahydroacridin-1-one dihydrochloride]
Percent Improvement ([1]; 0.03 mg/kg): 50.0% | Percent Improvement ([1]; 0.1 mg/kg): 71.9% | Anti-acetylcholinesterase Activity (Specific Activity) (acetylcholinesterase): 5.00 | Percent Improvement ([2]; 0.1 mg/kg): 0% | Percent Improvement ([2]; 0.3 mg/kg): 50.8%

Nc1c2c(nc3ccccc13)CCC(CCCCC1CCN(Cc3ccccc3)CC1)C2=O (stereo not drawn) [Compound 46, 9-Amino-2-(4-(1-benzylpiperidin-4-yl)butyl)-1,2,3,4-tetrahydroacridin-1-onedihydrochloride]
Anti-acetylcholinesterase Activity (Specific Activity) (acetylcholinesterase): 47.62 | Percent Improvement ([2]; 0.1 mg/kg): 32.3% | Percent Improvement ([2]; 0.3 mg/kg): 39.1%

O=C1c2c(nc3ccccc3c2O)CN1CCC1CCN(Cc2ccccc2)CC1 [Compound 61, 9-hydroxy-2-(4-(1-benzylpiperidyl)ethyl)-2,3-dihydropyrrolo[3,4-b]quinolin-1-one]
Percent Improvement ([2]; 0.03 mg/kg): 33.0% | Percent Improvement ([2]; 0.1 mg/kg): 86.1% | Percent Improvement ([2]; 0.3 mg/kg): 86.5%

COc1c2c(nc3ccccc13)CN(CCC1CCN(Cc3ccccc3)CC1)C2=O [Compound 67, 9-methoxy-2-(4-(1-benzylpiperidyl)ethyl)-2,3-dihydropyrrolo[3,4-b]quinolin-1-one]
Anti-acetylcholinesterase Activity (Specific Activity) (acetylcholinesterase): 9.52 | Percent Improvement ([2]; 0.03 mg/kg): 50.4% | Percent Improvement ([2]; 0.1 mg/kg): 92.0% | Percent Improvement ([2]; 0.3 mg/kg): 95.8%

Nc1c2c(nc3ccccc13)CCCC2 [Tacrine, 9-amino-1,2,3,4-tetrahydroacridine, reference compound]
improvement in symptoms of senile dementia patients of Alzheimer type [3]: effectiveness | Percent Improvement ([1]; 0.1 mg/kg): 0% | Percent Improvement ([1]; 1.0 mg/kg): 26.9%

— US5240934A, “Quinoline derivatives” (priority 1990, dated 1993)
